Among the data in patent US8815881B2 (Hoffmann-La Roche Inc., priority 2010, dated 2014) are IC50 values, retold here.

As usually defined, the IC50 is the midpoint of a concentration-inhibition curve.

The target in one test is BACE2 enzyme ectodomain (Homo sapiens (Human), UniProt Q9Y5Z0). Briefly: Fluorescent-peptide cleavage assay for BACE2 inhibition. In kind it is biochemical. To be noted: assay b): fluorescent-peptide cleavage, pH 4.5 (superscript b). Here is the method:
b) Fluorescent-Peptide Cleavage Assay for BACE2 Inhibition
BACE2 enzyme ectodomain (derived from plasmid “pET17b-T7-hu proBACE2”) was prepared as described in Ostermann et al., “Crystal Structure of Human BACE2 in Complex with a Hydroxyethylamine Transition-state Inhibitor”, Journal of Molecular Biology 2006, 355, 249-261. The pro-enzyme was stored at 4° C. at a concentration of 70 μg/ml.
A fluorescent peptide with the amino acid sequence WS EVNLD AEFRC-MR121 was synthesised and a stock solution of 1.5 mM in DMSO prepared and stored at −20° C. MR121 is a fluorophore with an excitation wavelength of 630 nm and emission wavelength of 695 nm. The MR121 fluorescence is quenched by the N-terminal tryptophan until the peptide is cleaved by BACE2.
Assays were all made in a Corning 384-well black polystyrene non-binding surface microtitre plate with clear flat bottom and using a Plate:Vision (Perkin Elmer) fluorescence reader. To perform the assay an 80 nM solution of BACE2 was prepared in assay buffer (assay buffer is 100 mM Na-acetate; 20 mM EDTA; 0.05% BSA; pH 4.5) and incubated at room temperature for 1 hour to activate the enzyme. 39 μl of the activated BACE2 was placed in each assay well, followed by 1 μl compound to be tested at an appropriate concentration in 100% DMSO. The plate was then mixed and incubated for 10 minutes at room temperature. To start the assay, 10 μl of a 1.5 μM solution fluorescent peptide in assay buffer was added and the fluorescence intensity in the assay mixture measured at 695 nm with an excitation wavelength of 630 nm for 30 minutes.
The assay readout is the rate of change of fluorescence intensity giving a relative measure of BACE2 activity. Small values correspond to high inhibition and larger values to low inhibition. To determine IC50 values (i.e. the concentration inhibiting the enzyme activity by 50%) of the compound for BACE2, typically, 15 assays were made with a range of concentrations chosen empirically to give low, high and intermediate inhibition of the protease. IC50 values were determined using these assay values generated for a range of inhibitor concentrations and the curve fitting software XLfit (IDBS) using the Sigmoidal Dose-Response Model.

Test [1] deals with endogenous cellular BACE2 in the Ins1e rat cell line (Rattus norvegicus (Rat), UniProt Q6IE75). In words: Assay for BACE inhibition by measuring cellular TMEM27 cleavage (ELISA of shed hTMEM27 from INS-TMEM27 cells). It is filed as cell-based. Particulars: assay a): cellular TMEM27 cleavage, INS-TMEM27 cells (superscript a). The method in brief:
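INS1e-derived cells with doxycycline-inducible (TetOn) full-length human TMEM27 get inhibitor 2 h before 500 ng/ml doxycycline, then 46 h further culture at 37 °C. Shed TMEM27 in supernatant measured by sandwich ELISA (anti-extracellular-domain antibodies); EC50 from concentration-response curve fit.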

BACE2 enzyme ectodomain, sequence (Q9Y5Z0 63-473): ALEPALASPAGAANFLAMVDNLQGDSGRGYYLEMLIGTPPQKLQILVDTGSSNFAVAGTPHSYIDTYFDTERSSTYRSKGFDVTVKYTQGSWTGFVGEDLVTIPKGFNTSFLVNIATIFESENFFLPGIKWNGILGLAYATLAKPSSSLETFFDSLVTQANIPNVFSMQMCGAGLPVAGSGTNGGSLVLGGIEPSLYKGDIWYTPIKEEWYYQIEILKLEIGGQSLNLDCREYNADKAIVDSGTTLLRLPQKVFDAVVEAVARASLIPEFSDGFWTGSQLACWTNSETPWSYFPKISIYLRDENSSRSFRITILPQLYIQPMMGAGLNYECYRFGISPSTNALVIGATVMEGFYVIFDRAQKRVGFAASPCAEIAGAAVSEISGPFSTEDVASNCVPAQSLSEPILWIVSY
endogenous cellular BACE2 in the Ins1e rat cell line, sequence (Q6IE75 63-514): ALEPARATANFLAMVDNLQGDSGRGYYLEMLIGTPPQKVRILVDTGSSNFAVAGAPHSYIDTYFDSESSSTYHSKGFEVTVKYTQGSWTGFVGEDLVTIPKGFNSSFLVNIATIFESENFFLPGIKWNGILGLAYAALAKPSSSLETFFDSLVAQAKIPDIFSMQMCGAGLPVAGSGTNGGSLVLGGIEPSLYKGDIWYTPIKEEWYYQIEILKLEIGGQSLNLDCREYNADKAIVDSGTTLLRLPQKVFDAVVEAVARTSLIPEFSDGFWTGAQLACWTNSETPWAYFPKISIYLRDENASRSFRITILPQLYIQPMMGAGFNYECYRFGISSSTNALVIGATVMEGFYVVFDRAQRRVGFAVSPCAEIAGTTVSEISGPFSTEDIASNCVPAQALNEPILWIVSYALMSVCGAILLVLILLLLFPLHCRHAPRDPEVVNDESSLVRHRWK

`CN1C(=O)C(C)(C)[C@@](C)(c2cc(Nc3ccc(C#N)cc3Cl)ccc2F)N=C1N` [Example 168, 4-[3-((S)-2-Amino-1,4,5,5-tetramethyl-6-oxo-1,4,5,6-tetrahydro-pyrimidin-4-yl)-4-fluoro-phenylamino]-3-chloro-benzonitrile]: the IC50 against BACE2 enzyme ectodomain amounted to 14 nM.
Still for that read-out and setting: the value for `COc1ccc(Nc2ccc(F)c([C@@]3(C)N=C(N)N(C)C(=O)C3(C)C)c2)cn1` [Example 170, (S)-2-Amino-6-(2-fluoro-5-(6-methoxypyridin-3-ylamino)phenyl)-3,5,5,6-tetramethyl-5,6-dihydropyrimidin-4(3H)-one] was 140 nM; that for `CN1C(=O)C(C)(C)[C@@](C)(c2cc(Nc3cccc(C#N)c3)ccc2F)N=C1N` [Example 167, 3-[3-((S)-2-Amino-1,4,5,5-tetramethyl-6-oxo-1,4,5,6-tetrahydro-pyrimidin-4-yl)-4-fluoro-phenylamino]-benzonitrile] was 73 nM; that for `CN1C(=O)C(C)(C)[C@@](C)(c2cc(Nc3cncc(F)c3)ccc2F)N=C1N` [Example 174, (S)-2-Amino-6-(2-fluoro-5-(5-fluoropyridin-3-ylamino)phenyl)-3,5,5,6-tetramethyl-5,6-dihydropyrimidin-4(3H)-one] was 150 nM.
Still for that read-out and setting: the result for `CN1C(=O)C(C)(C)[C@@](C)(c2cc(Nc3cc(F)c(C#N)cc3F)ccc2F)N=C1N` [Example 166, (S)-4-(3-(2-Amino-1,4,5,5-tetramethyl-6-oxo-1,4,5,6-tetrahydropyrimidin-4-yl)-4-fluorophenylamino)-2,5-difluorobenzonitrile] reads 80 nM; that for `Cc1ccc(Nc2ccc(F)c([C@@]3(C)N=C(N)N(C)C(=O)C3(C)C)c2)cc1C#N` [Example 169, 5-[3-((S)-2-Amino-1,4,5,5-tetramethyl-6-oxo-1,4,5,6-tetrahydro-pyrimidin-4-yl)-4-fluoro-phenylamino]-2-methyl-benzonitrile], 180 nM.
Still for that read-out and setting: the value for `CN1C(=O)C(C)(C)[C@@](C)(c2cc(Nc3cncc(C(F)(F)F)c3)ccc2F)N=C1N` [Example 175, (S)-2-Amino-6-(2-fluoro-5-(5-(trifluoromethyl)pyridin-3-ylamino)phenyl)-3,5,5,6-tetramethyl-5,6-dihydropyrimidin-4(3H)-one] was 250 nM.
On BACE2 enzyme ectodomain, `CN1C(=O)C(C)(C)[C@@](C)(c2cc(Nc3ccc(C#N)cc3OC(F)(F)F)ccc2F)N=C1N` [Example 161, (S)-4-(3-(2-Amino-1,4,5,5-tetramethyl-6-oxo-1,4,5,6-tetrahydropyrimidin-4-yl)-4-fluorophenylamino)-3-(trifluoromethoxy)benzonitrile] showed a half-inhibitory concentration (IC50) of 13 nM.
The same measure, in the same setting: the result for `CN1C(=O)C(C)(C)[C@@](C)(c2cc(Nc3cc(C#N)ccc3F)ccc2F)N=C1N` [Example 165, (S)-3-(3-(2-Amino-1,4,5,5-tetramethyl-6-oxo-1,4,5,6-tetrahydropyrimidin-4-yl)-4-fluorophenylamino)-4-fluorobenzonitrile] reads 39 nM; that for `COc1cc(Cl)c(C)cc1Nc1ccc(F)c([C@@]2(C)N=C(N)N(C)C(=O)C2(C)C)c1` [Example 154, (S)-2-Amino-6-(5-(4-chloro-2-methoxy-5-methylphenylamino)-2-fluorophenyl)-3,5,5,6-tetramethyl-5,6-dihydropyrimidin-4(3H)-one], 35 nM; that for `CN1C(=O)C(C)(C)[C@@](C)(c2cc(Nc3ccc(S(C)(=O)=O)cc3)ccc2F)N=C1N` [Example 164, (S)-2-Amino-6-(2-fluoro-5-(4-(methylsulfonyl)phenylamino)phenyl)-3,5,5,6-tetramethyl-5,6-dihydropyrimidin-4(3H)-one], 1090 nM.
Regarding `COc1ccc(Cl)cc1Nc1ccc(F)c([C@@]2(C)N=C(N)N(C)C(=O)C2(C)C)c1` [Example 150, (S)-2-Amino-6-(5-(5-chloro-2-methoxyphenylamino)-2-fluorophenyl)-3,5,5,6-tetramethyl-5,6-dihydropyrimidin-4(3H)-one], the IC50 on BACE2 enzyme ectodomain is 21 nM.
Still for that read-out and setting: the value for `CN1C(=O)C(C)(C)[C@@](C)(c2cc(NC3CCCC3C#N)ccc2F)N=C1N` (stereo partly drawn) [Example 162, 2-[3-((S)-2-Amino-1,4,5,5-tetramethyl-6-oxo-1,4,5,6-tetrahydro-pyrimidin-4-yl)-4-fluoro-phenylamino]-cyclopentanecarbonitrile] was 120 nM; that for `CN1C(=O)C(C)(C)[C@@](C)(c2cc(Nc3ccc(C#N)cc3)ccc2F)N=C1N` [Example 153, (S)-4-(3-(2-Amino-1,4,5,5-tetramethyl-6-oxo-1,4,5,6-tetrahydropyrimidin-4-yl)-4-fluorophenylamino)benzonitrile] was 130 nM; that for `Cc1ccc(Nc2ccc(F)c([C@@]3(C)N=C(N)N(C)C(=O)C3(C)C)c2)cn1` [Example 171, (S)-2-Amino-6-(2-fluoro-5-(6-methylpyridin-3-ylamino)phenyl)-3,5,5,6-tetramethyl-5,6-dihydropyrimidin-4(3H)-one] was 1800 nM.
`CN1C(=O)C(C)(C)[C@@](C)(c2cc(Nc3ccc(C#N)cc3C(F)(F)F)ccc2F)N=C1N` [Example 163, (S)-4-(3-(2-Amino-1,4,5,5-tetramethyl-6-oxo-1,4,5,6-tetrahydropyrimidin-4-yl)-4-fluorophenylamino)-3-(trifluoromethyl)benzonitrile]: the midpoint of inhibition on BACE2 enzyme ectodomain, the IC50, lay at 62 nM.
The same measure, in the same setting: the result for `CC(C)C(=O)Nc1ccc(F)c([C@@]2(C)N=C(N)N(C)C(=O)C2(C)C)c1` [Example 151, N-[3-((S)-2-Amino-1,4,5,5-tetramethyl-6-oxo-1,4,5,6-tetrahydro-pyrimidin-4-yl)-4-fluoro-phenyl]-isobutyramide] reads 100 nM; that for `CN1C(=O)C(C)(C)[C@@](C)(c2cc(Nc3ccc(OCC(F)(F)F)nc3)ccc2F)N=C1N` [Example 172, (S)-2-Amino-6-(2-fluoro-5-(6-(2,2,2-trifluoroethoxy)pyridin-3-ylamino)phenyl)-3,5,5,6-tetramethyl-5,6-dihydropyrimidin-4(3H)-one], 110 nM.
`Cc1nc(CNc2ccc(F)c([C@@]3(C)N=C(N)N(C)C(=O)C3(C)C)c2)co1` [Example 109, (S)-2-Amino-6-{2-fluoro-5-[(2-methyl-oxazol-4-ylmethyl)-amino]-phenyl}-3,5,5,6-tetramethyl-5,6-dihydro-3H-pyrimidin-4-one] had an IC50 in test [1] of 45 nM. That is a double-digit nanomolar value.
On the same count and under the same terms, the result for `CN1C(=O)C(C)(C)[C@@](C)(c2cc(NC3CCCC3C#N)ccc2F)N=C1N` (stereo partly drawn) [Example 135, 2-[3-((S)-2-Amino-1,4,5,5-tetramethyl-6-oxo-1,4,5,6-tetrahydro-pyrimidin-4-yl)-4-fluoro-phenylamino]-cyclopentanecarbonitrile] reads 1 nM; that for `COC(=O)CC1CCC(Nc2ccc(F)c([C@@]3(C)N=C(N)N(C)C(=O)C3(C)C)c2)C1` (stereo partly drawn) [Example 95, {3-[3-((S)-2-Amino-1,4,5,5-tetramethyl-6-oxo-1,4,5,6-tetrahydro-pyrimidin-4-yl)-4-fluoro-phenylamino]-cyclopentyl}-acetic acid methyl ester], 406 nM.
Still for that read-out and setting: the result for `CN1C(=O)C(C)(C)[C@@](C)(c2cc(NCc3ncccn3)ccc2F)N=C1N` [Example 85, (S)-2-Amino-6-{2-fluoro-5-[(pyrimidin-2-ylmethyl)-amino]-phenyl}-3,5,5,6-tetramethyl-5,6-dihydro-3H-pyrimidin-4-one] reads 101 nM.
At BACE2 enzyme ectodomain, `CN1C(=O)C(C)(C)[C@@](C)(c2cc(Nc3ccc(C(F)(F)F)nc3)ccc2F)N=C1N` [Example 173, (S)-2-Amino-6-(2-fluoro-5-(6-(trifluoromethyl)pyridin-3-ylamino)phenyl)-3,5,5,6-tetramethyl-5,6-dihydropyrimidin-4(3H)-one] came in with an IC50 of 400 nM. In other words, the sub-micromolar range.
In turn, `CN1C(=O)C(C)(C)[C@@](C)(c2cc(NC3CCOC3)ccc2F)N=C1N` (stereo partly drawn) [Example 22, (S)-2-Amino-6-[2-fluoro-5-(tetrahydro-furan-3-ylamino)-phenyl]-3,5,5,6-tetramethyl-5,6-dihydro-3H-pyrimidin-4-one] displayed an IC50 in test [1] of 5 nM.
Still for that read-out and setting: the result for `CN1C(=O)C(C)(C)[C@@](C)(c2cc(NC(=O)C(C(F)(F)F)C(F)(F)F)ccc2F)N=C1N` [Example 7, N-[3-((S)-2-Amino-1,4,5,5-tetramethyl-6-oxo-1,4,5,6-tetrahydro-pyrimidin-4-yl)-4-fluoro-phenyl]-3,3,3-trifluoro-2-trifluoromethyl-propionamide] reads 1010 nM.
